In patent US20250073238A1, “METHODS OF TREATING SYSTEMIC LUPUS ERYTHEMATOSUS USING BTK INHIBITORS” (BeiGene Switzerland GmbH, priority 2020, published 2025):

Assays:
[1] = system: NZBWF1/J lupus mouse model; experiment: Efficacy in NZBWF1/J lupus model; format: in vivo; settings: for Blood urea nitrogen (BUN) level: day 96, serum
Experimental: […] NZBWF1 female mice at 26 weeks of age were randomized into 7 groups with 10 mice per group, based on proteinuria level, anti-dsDNA IgG level and body weight. […] Treatments were administered by oral gavage (p.o.) in a volume of 10 ml/kg body weight.
Mice were also being monitored daily for clinical signs of toxicity for the duration of the study. Body weight for each animal was recorded twice per week and proteinuria was measured weekly. Proteinuria was assessed using URIT 1 vp strips, and was scored on a 0-4 scale with scored as follows: 0=trace, 1≥30 mg/dL, 2≥100 mg/dL, 3≥300 mg/dL, and 4≥500 mg/dL.
On the day 96th of treatment, blood was collected quickly by the heart punctures under carbon dioxide euthanasia. The 300-500 μL blood was transferred to the coagulation tube, and the upper serum samples were separated by centrifuge at 2,000 g for 10 minutes, and then stored in the refrigerator at −80° C. for later use. 110 μL serum was used for the detection of blood urea nitrogen level, and 25 μL serum was used for measurement of TNFα and IL-10 levels by Luminex.
The kidney was removed and fixed with 10% neutral buffer formalin solution. The tissue was taken from the modified block, dehydrated with alcohol step by step, embedded in paraffin, sectioned by slide slicer (about 3 μm thick), stained with hematoxylin-cosin (HE), and examined by light microscopy for pathological changes of the kidney tissue. Sections were blindly scored as the sum of three systems, including inflammation (0-4), glomerular damage (0-4), and sclerosis (0-4).

[2] = system: SLE-cGVHD mouse model; experiment: Efficacy in systemic lupus erythematosus like chronic graft-versus-host-disease (SLE-cGVHD) model; format: in vivo
Experimental: Splenocytes from DBA/2 mice were transplanted into 54 B6D2F1 mice intravenously at day −7 and day 0. 48 animals were randomly divided into 4 groups of 12 animals each group according to the inoculation order. Treatment was initiated the next day after randomization until the end of the 26th day. […] Treatments were administered by oral gavage (p.o.) in a volume of 10 ml/kg body weight.
Mice were monitored daily for clinical signs of toxicity for the duration of the study. Body weight for each animal was recorded twice per week. On day 15th of treatment, blood was collected from the orbital venous sinus under isoflurane/oxygen anesthesia and the serum samples were prepared. An anti-ds DNA IgG ELISA kit (Chondrex, Inc., Cat. 3031) was used to quantitate anti-ds DNA IgG levels in sera from individual mice.
On day 8th, b 15th and 22th of treatment, proteinuria was assessed by determination of urine albumin using URIT 1 vp strips (URIT, China), and was scored on a 0-4 scale with scored as follows: 0=trace, 1≥30 mg/dL, 2≥100 mg/dL, 3≥300 mg/dL, and 4≥500 mg/dL.
The difference between the mean values of proteinuria level, spleen-index and anti-ds DNA IgG level in treatment and vehicle group was analyzed for significance using One-way ANOVA (followed by Dunnett's test). P<0.05 was considered statistically significant.

[3] = Plasma drug exposure at steady state in SLE-cGVHD mice; format: in vivo, mouse; settings: day 26, 10 and 20 mg/kg BID oral
Experimental: Plasma was collected by centrifugation at 5, 600 rpm for 7 minutes. Bioanalysis was conducted at 3D BioOptima Co., Ltd. (Suzhou, China).

[4] = system: MRL/MpJ-Fas^lpr/J (MRL/lpr) mouse model; experiment: Efficacy in MRL/MpJ-Fas^lpr/J (MRL/lpr) lupus model; format: in vivo
Experimental: MRL/MpJ-Fas^lpr/J (MRL/lpr) mice purchased from Jackson laboratories were randomized into 6 groups with 11 mice per group, based on proteinuria level, anti-dsDNA IgG and body weight. […] Treatments were administered by oral gavage (p.o.) in a volume of 10 ml/kg body weight.
During the experimental period, the condition and mortality of the mice were recorded every day. Body weight for each animal was recorded twice per week.
Proteinuria was measured by determination of urine albumin weekly using URIT 1 vp strips (URIT, China), and was scored on a 0-4 scale with scored as follows: 0=trace, 1≥30 mg/dLl, 2≥100 mg/dL, 3≥300 mg/dLl, and 4≥500 mg/dL.
At the end of the study, blood was collected from the orbital venous sinus under isoflurane/oxygen anesthesia. The serum samples were prepared and analyzed for BUN level in serum. An anti-dsDNA IgG ELISA kit (Chondrex, Inc., Cat. 3031) was used to quantitate IgG level to anti-dsDNA IgG in sera from individual mice.
Mice were euthanized using carbon dioxide, spleen and body weight were measured at the end of the study. Spleen index (ratio of spleen weight to body weight) was calculated.
The kidneys were collected and preserved in 10% NBF, the tissues were trimmed, dehydrated, embedded in paraffin, sectioned (˜3 μm) and stained with HE. The histopathology exam was performed.
The difference between the mean values of proteinuria level, spleen-index, BUN level, kidney histopathology score and anti-dsDNA IgG level in treatment and vehicle group was analyzed for significance using One-way ANOVA (followed by Dunnett's test). P<0.05 was considered statistically significant.

[5] = Plasma drug exposure at steady state in MRL/lpr mice; format: in vivo, mouse; settings: 1.5-50 mg/kg BID oral
Experimental: Plasma was collected by centrifugation at 5, 600 rpm for 7 minutes and was kept frozen at −80° C. until analysis. Bioanalysis was conducted at 3D BioOptima Co., Ltd. (Suzhou, China).

[6] = MMF 100 mg/kg QD p.o., compared with the control group
[7] = Compound 1 10 mg/kg BID p.o., day 96
[8] = Compound 1 3 and 10 mg/kg BID p.o.
[9] = 1.5, 5, 15 and 50 mg/kg BID oral, end of study

SMILES: COc1c(C)c2c(c(O)c1C/C=C(\C)CCC(=O)OCCN1CCOCC1)C(=O)OC2 [MMF, mycophenolate mofetil, reference compound]
- Renal histopathology score ([1]; MMF 100 mg/kg QD p.o.): not able to significantly inhibit
- Spleen mass ([1]; MMF 100 mg/kg QD p.o.): not able to significantly inhibit
- IL-10 level in serum [1, 6]: lower level of TNFα and IL-10 with no statistical significance
- TNFα level in serum [1, 6]: lower level of TNFα and IL-10 with no statistical significance
- Blood urea nitrogen (BUN) level ([1]; MMF 100 mg/kg QD p.o.): remarkably inhibited

SMILES: C=CC(=O)N1CCC([C@@H]2CCNc3c(C(N)=O)c(-c4ccc(Oc5ccccc5)cc4)nn32)CC1 [Compound 1, (S)-7-(1-acryloylpiperidin-4-yl)-2-(4-phenoxyphenyl)-4,5,6,7-tetra-hydropyrazolo[1,5-a]pyrimidine-3-carboxamide]
- Secretion of IL-10 (serum level) [1, 7]: dramatically inhibited
- Secretion of TNFα (serum level) [1, 7]: dramatically inhibited
- Renal histopathology score ([1]; Compound 1 0.1-10 mg/kg BID p.o.): inhibited renal histopathology score in a dose-dependent manner
- Proteinuria ([1]; Compound 1 0.1-10 mg/kg BID p.o., vs. vehicle): dose-dependently suppressed
- Proteinuria ([1]; Compound 1 0.1 and 0.3 mg/kg BID p.o., compared with MMF 100 mg/kg QD): less effective than MMF
- Proteinuria ([1]; Compound 1 1, 3 and 10 mg/kg BID p.o., compared with MMF 100 mg/kg QD): no significant difference when compared with MMF
- Spleen weight [1, 8]: dramatically inhibited
- Blood urea nitrogen (BUN) level [1, 8]: remarkably inhibited
- Anti-lupus effect compared with MMF ([1]; Compound 1 orally 3 and 10 mg/kg BID): stronger anti-lupus effect
- Anti-lupus effect (overall) ([1]; NZBWF1/J lupus mouse model, all results): strong anti-lupus effect
- Level of anti-dsDNA IgG in serum ([2]; 10 and 20 mg/kg BID oral, day 15 of treatment, ELISA): inhibited
- Proteinuria level ([2]; 10 and 20 mg/kg BID oral, day 22 of treatment): significantly reduced
- Disease (overall) ([2]; SLE-cGvHD mouse model, all results): ameliorated disease
- Drug exposure AUC0-8h [3]: increased dose dependently
- Drug exposure Cmax [3]: increased dose dependently
- Efficacy (dose dependence) ([4]; 1.5 mg/kg to 50 mg/kg twice a day): dose-dependent efficacy
- Protection from lupus nephritis ([4]; 1.5, 5, 15 and 50 mg/kg BID oral, 17 weeks): significantly protected
- Proteinuria ([4]; 1.5, 5, 15 and 50 mg/kg BID oral, day 118): significantly decreased
- Kidney histopathological score [4, 9]: reduced
- Serum blood urea nitrogen (BUN) level [4, 9]: significantly decreased
- Anti-dsDNA IgG level in serum ([4]; 1.5, 5, 15 and 50 mg/kg BID oral, end of study, compared with vehicle): inhibited
- Anti-lupus effect (overall) ([4]; MRL/lpr mouse model, all results): strong anti-lupus effect
- Drug exposure AUC0-8h [5]: increased dose independently
- Drug exposure Cmax [5]: increased dose independently
